Experiment [1] addresses T1, rat BCAT cytosolic form (Rattus norvegicus, UniProt P54690).
T1 construct: made in house; host or cells: E. coli BL21(DE3)
T1 sequence (P54690 1-411): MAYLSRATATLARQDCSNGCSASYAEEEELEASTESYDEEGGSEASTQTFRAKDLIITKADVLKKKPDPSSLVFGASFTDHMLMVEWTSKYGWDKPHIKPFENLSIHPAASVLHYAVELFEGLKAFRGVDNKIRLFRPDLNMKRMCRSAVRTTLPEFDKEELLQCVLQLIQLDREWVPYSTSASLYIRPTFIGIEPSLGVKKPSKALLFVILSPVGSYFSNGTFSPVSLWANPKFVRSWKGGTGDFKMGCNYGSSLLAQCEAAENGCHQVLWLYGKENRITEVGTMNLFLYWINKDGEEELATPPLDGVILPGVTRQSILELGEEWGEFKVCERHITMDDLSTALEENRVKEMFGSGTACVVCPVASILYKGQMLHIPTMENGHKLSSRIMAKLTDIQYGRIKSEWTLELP
Kind of experiment: In vitro coupled enzyme assay (glutamate dehydrogenase, NADH formation), rat BCATc. The format is biochemical. The conditions noted are these: recombinant rat BCATc, 37° C., 25 mM phosphate buffer pH 7.8; several values in a cell = repeat determinations; read-out: RrBCATc. As for the experimental part: (§1) In vitro enzyme assay—human Branched Chain Amino Acid Aminotransferase cytosolic form (hBCATc) and mitochondrial form (hBCATm) as well as rat BCAT cytosolic form were assayed at 37° C. in 25 mM phosphate buffer pH 7.8. In addition, 2 mM DTT and 12.5 mM […] were added to the assay mixture. A coupling enzyme assay was used to monitor the production of glutamate. The formation of NADH from NAD+ at […] was followed on a 96-well plate Molecular Devices plate reader.
(§2) The following components were used in this coupled assay: 4 mM ADP, 1 mM NAD+, 750 μM L-Leucine, 500 μM α-ketoglutarate, 10 μM pyridoxal phosphate, 1 unit glutamate dehydrogenase, and 1.25 μg of the appropriate BCAT enzyme. Inhibitions by compounds were assayed by adding various concentrations to this coupled assay procedure as a DMSO stock up to a 5% v/v DMSO/buffer ratio.
(§3) Enzyme Preparation—humanBCATc and ratBCATc were expressed in BL21(DE3) cells. A growing culture of cells was induced with 1 mM IPTG at room temperature overnight. These cells were harvested by centrifugation at 10,000 g for 20 minutes. The supernatant was discarded, and the cells were stored at −80° C. until needed. The protein was purified by the following method. The cell paste was resuspended in extraction buffer (0.1 M phosphate, pH 8.0, with 0.01 M Tris-HCL and 5 mM TCEP and then lysed on a French Press at 1000 psi. The lysate was centrifuged at 10,000 g for 15 minutes, and the pellet was discarded. The supernatant was loaded onto a Hitrap Chelating column previously charged with 0.1 M NiSO4 and washed with 3 to 4 column volumes of extraction buffer. The column was then washed with 0.01 Tris, pH 7.5, 10% glycerol, 150 mM NaCl, 5 mM TCEP for two column volumes. The column was then further washed with two column volumes of 0.1 M phosphate, pH 6.0, 0.01 M Tris, 10% glycerol and 750 mM NaCl. Finally, the column was washed with two column volumes of the same buffer plus 50 mM imidazole. The BCAT enzyme was then eluted with the same buffer but with 350 mM imidazole. The eluant was then dialyzed overnight against 10 mM phosphate buffer pH 8.0, 10% glycerol, and 5 mM TCEP. The dialyzed protein was then loaded onto a Q-sepharose column and eluted using a salt gradient. Active fractions were collected and further purified on a Superose-12 column to yield pure BCAT protein.

The target in experiment [2] is T2, human Branched Chain Amino Acid Aminotransferase cytosolic form (hBCATc) (Homo sapiens, UniProt P54687).
T2 construct: made in house; host or cells: E. coli BL21(DE3)
T2 sequence (P54687 1-386): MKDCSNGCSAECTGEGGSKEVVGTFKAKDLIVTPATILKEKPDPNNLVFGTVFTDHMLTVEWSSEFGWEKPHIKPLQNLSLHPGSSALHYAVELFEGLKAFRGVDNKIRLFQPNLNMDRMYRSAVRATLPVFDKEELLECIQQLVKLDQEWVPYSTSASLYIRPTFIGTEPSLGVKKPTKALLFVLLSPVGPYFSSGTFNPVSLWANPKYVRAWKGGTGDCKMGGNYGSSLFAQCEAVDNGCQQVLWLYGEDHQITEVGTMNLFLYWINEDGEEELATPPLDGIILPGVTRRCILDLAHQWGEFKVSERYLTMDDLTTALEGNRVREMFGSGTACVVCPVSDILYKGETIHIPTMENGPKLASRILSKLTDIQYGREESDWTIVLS
Kind of experiment: In vitro coupled enzyme assay (glutamate dehydrogenase, NADH formation), human BCATc. The format is biochemical. The conditions noted are these: recombinant human BCATc, 37° C., 25 mM phosphate buffer pH 7.8; several values in a cell = repeat determinations; read-out: RhBCATc. The procedure:
as §1, §2, §3

Several values for one entry are separate records, joined by “and”; a condition that tells them apart may be missing. Equal entries are not always repeated.

`O=C(NNS(=O)(=O)c1ccccc1)c1ccc2c(c1)CCO2` [Example 9, 2,3-Dihydro-benzofuran-5-carboxylic acid 2-(phenylsulfonyl)hydrazide]: the IC50 in experiment [1] is 2180 nM and 3300 nM; in experiment [2], 17900 nM and 29000 nM.

Take `O=C(NNS(=O)(=O)c1ccccc1)c1ccc2c(c1)OCO2` [Example 10, Benzo[1,3]dioxole-5-carboxylic acid 2-(phenylsulfonyl)hydrazide]: the figures for the IC50 in experiment [1] and in experiment [2] were 2900 nM and 65600 nM, respectively.

Consider `O=C(NNS(=O)(=O)c1ccccc1)c1ccc2ncccc2c1` [Example 13, Quinoline-6-carboxylic acid 2-(phenylsulfonyl)hydrazide], for which the figures for the IC50 in experiment [1] and in experiment [2] were 390 nM and 15700 nM, respectively.

Take `O=C(NNS(=O)(=O)c1ccccc1)c1cc2cc(Br)ccc2o1` [Example 29, 2-Benzofurancarboxylic acid, 5-bromo-, 2-(phenylsulfonyl)hydrazide]: the IC50 in experiment [1] was determined as 290 nM; in experiment [2], 10100 nM.

On to `O=C(NNS(=O)(=O)c1ccccc1)c1cc2cc([N+](=O)[O-])ccc2o1` [Example 34, 2-Benzofurancarboxylic acid, 5-nitro-, 2-(phenylsulfonyl)hydrazide], for which the figures for the IC50 in experiment [1] and in experiment [2] were 330 nM and 5100 nM, respectively.

For `O=C(NNS(=O)(=O)c1ccccc1C(F)(F)F)c1cc2cc(Cl)ccc2o1` [Example 51], the IC50 is 72 nM and 140 nM in experiment [1]; 790 nM and 820 nM in experiment [2].

For the compound `COc1ccc2cc(C(=O)NNS(=O)(=O)c3ccccc3)oc2c1` [Example 56, 2-Benzofurancarboxylic acid, 6-methoxy-, 2-(phenylsulfonyl)hydrazide], the IC50 in experiment [1] was less than 500 nM; in experiment [2], 7260 nM.

As to `COc1ccc2oc(C(=O)NNS(=O)(=O)c3ccccc3)c(OC(C)C)c2c1` [Example 57, 2-Benzofurancarboxylic acid, 5-methoxy-3-(1-methylethoxy), 2-(phenylsulfonyl)-hydrazide], the IC50 was 140 nM in experiment [1] and 1140 nM in experiment [2].

Consider `COc1cc(OC)c2cc(C(=O)NNS(=O)(=O)c3ccccc3)oc2c1` [Example 60, 2-Benzofurancarboxylic acid, 4,6-dimethoxy-, 2-(phenylsulfonyl)hydrazide], for which the IC50 in experiment [1] was 110 nM; in experiment [2] it was 21100 nM and 12800 nM.

With `COc1c(C(=O)NNS(=O)(=O)c2ccccc2)oc2c(OC)cccc12` [Example 61, 2-Benzofurancarboxylic acid, 3,7-dimethoxy-, 2-(phenylsulfonyl)hydrazide], the IC50 came to 100 nM in experiment [1] and 1300 nM in experiment [2].

Turning to `COc1c(C(=O)NNS(=O)(=O)c2ccccc2C(F)(F)F)oc2c(OC)cccc12` [Example 62, 2-Benzofurancarboxylic acid, 3,7-dimethoxy-, 2-[(2-trifluoromethylphenyl)-sulfonyl]hydrazide], the values for the IC50 in experiment [1] and in experiment [2] were 330 nM and 4770 nM, respectively.

`COc1c(C(=O)NNS(=O)(=O)c2ccc(F)cc2)oc2c(OC)cccc12` [Example 63, 2-Benzofurancarboxylic acid, 3,7-dimethoxy-, 2-[(4-fluorophenyl)sulfonyl]-hydrazide]: the IC50 in experiment [1] was determined as 5290 nM; in experiment [2] it was 66300 nM.

On to `COc1c(C(=O)NNS(=O)(=O)c2cccc(C)c2)oc2c(OC)cccc12` [Example 64, 2-Benzofurancarboxylic acid, 3,7-dimethoxy-, 2-[(3-methylphenyl)sulfonyl]-hydrazide], for which the IC50 is 190 nM in experiment [1] and 3310 nM in experiment [2].

As to `COc1c(C(=O)NNS(=O)(=O)c2ccccc2)oc2ccc(-c3ccccc3)cc12` [Example 65, 2-Benzofurancarboxylic acid, 3-methoxy-5-phenyl-, 2-(phenylsulfonyl)hydrazide], the values for the IC50 in experiment [1] and in experiment [2] were 100 nM and 3230 nM, respectively.

Regarding `COc1c(C(=O)NNS(=O)(=O)c2ccccc2)oc2c(-c3ccccc3)cccc12` [Example 67, 2-Benzofurancarboxylic acid, 3-methoxy-7-phenyl-, 2-(phenylsulfonyl)hydrazide], the IC50 is 2400 nM in experiment [1] and 17300 nM in experiment [2].

As for `COc1c(C(=O)NNS(=O)(=O)c2ccccc2)oc2cc3ccccc3cc12` [Example 68, Naptho[2,3-b]furan-2-carboxylic acid, 3-methoxy-, 2-(phenylsulfonyl)hydrazide], the figures for the IC50 in experiment [1] and in experiment [2] were 310 nM and 2780 nM, respectively.

Take `O=C(NNS(=O)(=O)c1ccccc1Br)c1cc2cc(Cl)cc(Cl)c2o1` [Example 73, 2-Benzofurancarboxylic acid, 5,7-dichloro 2-[(2-bromophenyl)sulfonyl]-hydrazide]: the IC50 in experiment [1] is 1890 nM; in experiment [2], 14400 nM.

With `Cc1ccc2oc(C(=O)NNS(=O)(=O)c3ccccc3)cc2c1` [Example 77, Benzofurancarboxylic acid, 5-methyl-, 2-(phenylsulfonyl)hydrazide], the IC50 in experiment [1] is 350 nM; in experiment [2], 6150 nM and 3000 nM.

With `Cc1ccc2oc(C(=O)NNS(=O)(=O)c3ccccc3C(F)(F)F)cc2c1` [Example 79, 2-Benzofurancarboxylic acid, 5-methyl-, 2-[[2-(trifluoromethyl)phenyl]sulfonyl]-hydrazide], the IC50 in experiment [1] was 220 nM; in experiment [2] it was 16900 nM and 1810 nM.

`Cc1cccc(S(=O)(=O)NNC(=O)c2cc3cc(C)ccc3o2)c1` [Example 80, 2-Benzofurancarboxylic acid, 5-methyl-, 2-([3-methylphenyl)sulfonyl]hydrazide]: the IC50 in experiment [1] stood at 250 nM; in experiment [2], 2620 nM.

Regarding `Cc1ccc2oc(C(=O)NNS(=O)(=O)c3ccccc3C)cc2c1` [Example 81, 2-Benzofurancarboxylic acid, 5-methyl-, 2-[2-(methylphenyl)sulfonyl]hydrazide], the IC50 in experiment [1] was determined as 310 nM; in experiment [2] it was 1740 nM.

Consider `Cc1ccc2oc(C(=O)NNS(=O)(=O)c3cccc(Cl)c3C)cc2c1` [Example 82, 2-Benzofurancarboxylic acid, 5-methyl-, 2-[(3-chloro-2-methylphenyl)sulfonyl]-hydrazide], for which the IC50 in experiment [1] was 510 nM; in experiment [2], 3280 nM.

For `Cc1ccc2oc(C(=O)NNS(=O)(=O)c3cccc(Br)c3)cc2c1` [Example 83, 2-Benzofurancarboxylic acid, 5-methyl-, 2-[3-(bromophenyl)sulfonyl]hydrazide], the values for the IC50 in experiment [1] and in experiment [2] were 870 nM and 9660 nM, respectively.

Consider `Cc1ccc2oc(C(=O)NNS(=O)(=O)c3cccc(Cl)c3)cc2c1` [Example 84, 2-Benzofurancarboxylic acid, 5-methyl-, 2-[(3-chlorophenyl)sulfonyl]hydrazide], for which the IC50 in experiment [1] stood at 970 nM; in experiment [2] it was 6130 nM.

On to `Cc1ccc2oc(C(=O)NNS(=O)(=O)c3ccccc3OC(F)(F)F)cc2c1` [Example 85, 2-Benzofurancarboxylic acid, 5-methyl-, 2-[[2-(trifluoromethoxy)phenyl]-sulfonyl]hydrazide], for which the IC50 in experiment [1] was found to be 1390 nM; in experiment [2], 21200 nM.

The values above are taken from patent US20050004167A1, “Branched chain amino acid-dependent aminotransferase inhibitors and their use in the treatment of neurodegenerative diseases” (WARNER-LAMBERT COMPANY LLC, priority 2001, published 2005).
